# Reference: patent US6737383B1, “Herbicidal oxadiazolidines” (priority 1999, dated 2004)
# Key:
# tall mallow = experiment: Test D tall mallow; type: in vivo, Malva sylvestris; conditions: Postemergence, 0 to 100 scale
# common pursiane = experiment: Test D common purslane; type: in vivo, Portulaca oleracea; conditions: Postemergence, 0 to 100 scale
# Spanishneedles = experiment: Test D Spanishneedles; type: in vivo, Bidens bipinnata; conditions: Postemergence, 0 to 100 scale
# dallisgrass = experiment: Test D dallisgrass; type: in vivo, Paspalum dilatatum; conditions: Postemergence, 0 to 100 scale
# Green foxtail [1] = experiment: Test D green foxtail; type: in vivo; conditions: Postemergence, 0 to 100 scale, 0 no injury, 100 complete control
# pitted morningglory = experiment: Test D pitted morningglory; type: in vivo, Ipomoea lacunosa; conditions: Postemergence, 0 to 100 scale
# Alexandergrass = experiment: Test D Alexandergrass; type: in vivo, Brachiaria plantaginea; conditions: Postemergence, 0 to 100 scale
# Green foxtail [2] = experiment: Test D green foxtail; type: in vivo; conditions: Postemergence, 0 to 100 scale, 0 no injury, 100 complete control; remark: listed apart in the source
# Green foxtail [3] = experiment: Test D green foxtail; type: in vivo; conditions: Rate 250 g/ha; Postemergence; 0 to 100 scale
# surinam grass = experiment: Test D surinam grass; type: in vivo, Brachiaria decumbens; conditions: Postemergence, 0 to 100 scale
# guineagrass = experiment: Test D guineagrass; type: in vivo, Panicum maximum; conditions: Postemergence, 0 to 100 scale
# Johnson grass = experiment: Test D Johnson grass; type: in vivo, Sorghum halepense; conditions: Postemergence, 0 to 100 scale
# [4] = Rate 16 g/ha, 0 no injury, 100 complete control
# [5] = Rate 32 g/ha, 0 no injury, 100 complete control
# [6] = Rate 64 g/ha, 0 no injury, 100 complete control
# [7] = Rate 125 g/ha, 0 no injury, 100 complete control
compound,measurement,setting,value
CC(C)N(C(=O)n1oc(=O)n(C2CC2)c1=O)c1ccc(Cl)cc1 [Compound 241],"Plant response rating, Tall Mallow",tall mallow; [4],0
same,"Plant response rating, Tall Mallow",tall mallow; [5],0
same,Tall Mallow plant response rating,tall mallow; [6],0
same,Tall Mallow plant response rating,tall mallow; [7],10
same,"Plant response rating, Tall Mallow",tall mallow; Rate 250 g/ha,40
same,"Plant response rating, C. purslane",common pursiane; [4],0
same,"Plant response rating, C. purslane",common pursiane; [5],0
same,"Plant response rating, C. purslane",common pursiane; [6],0
same,"Plant response rating, C. purslane",common pursiane; [7],0
same,"Plant response rating, C. purslane",common pursiane; Rate 250 g/ha,0
same,"Plant response rating, Spanishneedles",Spanishneedles; [4],0
same,"Plant response rating, Spanishneedles",Spanishneedles; [5],0
same,Spanishneedles plant response rating,Spanishneedles; [6],0
same,Spanishneedles plant response rating,Spanishneedles; [7],0
same,"Plant response rating, Spanishneedles",Spanishneedles; Rate 250 g/ha,10
same,"Plant response rating, Dallisgrass",dallisgrass; [4],0
same,"Plant response rating, Dallisgrass",dallisgrass; [5],40
same,"Plant response rating, Dallisgrass",dallisgrass; [6],50
same,"Plant response rating, Dallisgrass",dallisgrass; [7],90
same,"Plant response rating, Dallisgrass",dallisgrass; Rate 250 g/ha,100
same,Green foxtail plant response rating,Green foxtail [1]; Rate 64 g/ha,10
same,Green foxtail plant response rating,Green foxtail [1]; Rate 125 g/ha,100
same,"Plant response rating, P. morninglory",pitted morningglory; [4],0
same,"Plant response rating, P. morninglory",pitted morningglory; [5],0
same,"Plant response rating, P. morninglory",pitted morningglory; [6],0
same,"Plant response rating, P. morninglory",pitted morningglory; [7],0
same,"Plant response rating, P. morninglory",pitted morningglory; Rate 250 g/ha,0
same,"Plant response rating, Alexandergrass",Alexandergrass; [4],0
same,"Plant response rating, Alexandergrass",Alexandergrass; [5],10
same,"Plant response rating, Alexandergrass",Alexandergrass; [6],10
same,"Plant response rating, Alexandergrass",Alexandergrass; [7],100
same,"Plant response rating, Alexandergrass",Alexandergrass; Rate 250 g/ha,100
same,"Plant response rating, Green foxtail",Green foxtail [2]; Rate 16 g/ha,0
same,"Plant response rating, Green foxtail",Green foxtail [2]; Rate 32 g/ha,10
same,"Plant response rating, Green foxtail",Green foxtail [3],100
same,"Plant response rating, Surinam grass",surinam grass; [4],0
same,"Plant response rating, Surinam grass",surinam grass; [5],0
same,Surinam grass plant response rating,surinam grass; [6],60
same,Surinam grass plant response rating,surinam grass; [7],100
same,"Plant response rating, Surinam grass",surinam grass; Rate 250 g/ha,100
same,"Plant response rating, Guineagrass",guineagrass; [4],0
same,"Plant response rating, Guineagrass",guineagrass; [5],0
same,Guineagrass plant response rating,guineagrass; [6],100
same,"Plant response rating, Guineagrass",guineagrass; [6],80
same,"Plant response rating, Guineagrass",guineagrass; [7],100
same,"Plant response rating, Guineagrass",guineagrass; Rate 250 g/ha,100
same,"Plant response rating, Johnsongrass",Johnson grass; [4],80
same,"Plant response rating, Johnsongrass",Johnson grass; [5],0
same,"Plant response rating, Johnsongrass",Johnson grass; [6],0
same,"Plant response rating, Johnsongrass",Johnson grass; [7],0
same,"Plant response rating, Johnsongrass",Johnson grass; Rate 250 g/ha,0
CC(C)N(C(=O)n1oc(=O)n(C2CCC2)c1=O)c1ccc(Cl)cc1 [Compound 349],"Plant response rating, Tall Mallow",tall mallow; [4],0
same,"Plant response rating, Tall Mallow",tall mallow; [5],0
same,Tall Mallow plant response rating,tall mallow; [6],0
same,Tall Mallow plant response rating,tall mallow; [7],0
same,"Plant response rating, Tall Mallow",tall mallow; Rate 250 g/ha,0
same,"Plant response rating, C. purslane",common pursiane; [4],0
same,"Plant response rating, C. purslane",common pursiane; [5],0
same,"Plant response rating, C. purslane",common pursiane; [6],0
same,"Plant response rating, C. purslane",common pursiane; [7],0
same,"Plant response rating, C. purslane",common pursiane; Rate 250 g/ha,0
same,"Plant response rating, Spanishneedles",Spanishneedles; [4],0
same,"Plant response rating, Spanishneedles",Spanishneedles; [5],0
same,Spanishneedles plant response rating,Spanishneedles; [6],0
same,Spanishneedles plant response rating,Spanishneedles; [7],0
same,"Plant response rating, Spanishneedles",Spanishneedles; Rate 250 g/ha,0
same,"Plant response rating, Dallisgrass",dallisgrass; [4],0
same,"Plant response rating, Dallisgrass",dallisgrass; [5],0
same,"Plant response rating, Dallisgrass",dallisgrass; [6],0
same,"Plant response rating, Dallisgrass",dallisgrass; [7],60
same,"Plant response rating, Dallisgrass",dallisgrass; Rate 250 g/ha,90
same,Green foxtail plant response rating,Green foxtail [1]; Rate 64 g/ha,10
same,Green foxtail plant response rating,Green foxtail [1]; Rate 125 g/ha,80
same,"Plant response rating, P. morninglory",pitted morningglory; [4],0
same,"Plant response rating, P. morninglory",pitted morningglory; [5],0
same,"Plant response rating, P. morninglory",pitted morningglory; [6],0
same,"Plant response rating, P. morninglory",pitted morningglory; [7],0
same,"Plant response rating, P. morninglory",pitted morningglory; Rate 250 g/ha,0
same,"Plant response rating, Alexandergrass",Alexandergrass; [4],0
same,"Plant response rating, Alexandergrass",Alexandergrass; [5],0
same,"Plant response rating, Alexandergrass",Alexandergrass; [6],40
same,"Plant response rating, Alexandergrass",Alexandergrass; [7],70
same,"Plant response rating, Alexandergrass",Alexandergrass; Rate 250 g/ha,90
same,"Plant response rating, Green foxtail",Green foxtail [2]; Rate 16 g/ha,0
same,"Plant response rating, Green foxtail",Green foxtail [2]; Rate 32 g/ha,0
same,"Plant response rating, Green foxtail",Green foxtail [3],100
same,"Plant response rating, Surinam grass",surinam grass; [4],0
same,"Plant response rating, Surinam grass",surinam grass; [5],0
same,Surinam grass plant response rating,surinam grass; [6],0
same,Surinam grass plant response rating,surinam grass; [7],10
same,"Plant response rating, Surinam grass",surinam grass; Rate 250 g/ha,60
same,"Plant response rating, Guineagrass",guineagrass; [4],0
same,"Plant response rating, Guineagrass",guineagrass; [5],0
same,Guineagrass plant response rating,guineagrass; [6],0
same,"Plant response rating, Guineagrass",guineagrass; [6],20
same,"Plant response rating, Guineagrass",guineagrass; [7],0
same,"Plant response rating, Guineagrass",guineagrass; Rate 250 g/ha,40
same,"Plant response rating, Johnsongrass",Johnson grass; [4],0
same,"Plant response rating, Johnsongrass",Johnson grass; [5],0
same,"Plant response rating, Johnsongrass",Johnson grass; [6],0
same,"Plant response rating, Johnsongrass",Johnson grass; [7],10
same,"Plant response rating, Johnsongrass",Johnson grass; Rate 250 g/ha,40
CC(C)N(C(=O)n1oc(=O)n(C2CCC2)c1=O)c1ccccc1 [Compound 348],"Plant response rating, Tall Mallow",tall mallow; [4],0
same,"Plant response rating, Tall Mallow",tall mallow; [5],0
same,Tall Mallow plant response rating,tall mallow; [6],0
same,Tall Mallow plant response rating,tall mallow; [7],20
same,"Plant response rating, Tall Mallow",tall mallow; Rate 250 g/ha,40
same,"Plant response rating, C. purslane",common pursiane; [4],0
same,"Plant response rating, C. purslane",common pursiane; [5],0
same,"Plant response rating, C. purslane",common pursiane; [6],0
same,"Plant response rating, C. purslane",common pursiane; [7],0
same,"Plant response rating, C. purslane",common pursiane; Rate 250 g/ha,0
same,"Plant response rating, Spanishneedles",Spanishneedles; [4],0
same,"Plant response rating, Spanishneedles",Spanishneedles; [5],0
same,Spanishneedles plant response rating,Spanishneedles; [6],0
same,Spanishneedles plant response rating,Spanishneedles; [7],0
same,"Plant response rating, Spanishneedles",Spanishneedles; Rate 250 g/ha,0
same,"Plant response rating, Dallisgrass",dallisgrass; [4],0
same,"Plant response rating, Dallisgrass",dallisgrass; [5],50
same,"Plant response rating, Dallisgrass",dallisgrass; [6],90
same,"Plant response rating, Dallisgrass",dallisgrass; [7],100
same,"Plant response rating, Dallisgrass",dallisgrass; Rate 250 g/ha,100
same,Green foxtail plant response rating,Green foxtail [1]; Rate 64 g/ha,100
same,Green foxtail plant response rating,Green foxtail [1]; Rate 125 g/ha,100
same,"Plant response rating, P. morninglory",pitted morningglory; [4],0
same,"Plant response rating, P. morninglory",pitted morningglory; [5],0
same,"Plant response rating, P. morninglory",pitted morningglory; [6],0
same,"Plant response rating, P. morninglory",pitted morningglory; [7],0
same,"Plant response rating, P. morninglory",pitted morningglory; Rate 250 g/ha,0
same,"Plant response rating, Alexandergrass",Alexandergrass; [4],0
same,"Plant response rating, Alexandergrass",Alexandergrass; [5],0
same,"Plant response rating, Alexandergrass",Alexandergrass; [6],70
same,"Plant response rating, Alexandergrass",Alexandergrass; [7],100
same,"Plant response rating, Alexandergrass",Alexandergrass; Rate 250 g/ha,100
same,"Plant response rating, Green foxtail",Green foxtail [2]; Rate 16 g/ha,0
same,"Plant response rating, Green foxtail",Green foxtail [2]; Rate 32 g/ha,20
same,"Plant response rating, Green foxtail",Green foxtail [3],100
same,"Plant response rating, Surinam grass",surinam grass; [4],0
same,"Plant response rating, Surinam grass",surinam grass; [5],0
same,Surinam grass plant response rating,surinam grass; [6],20
same,Surinam grass plant response rating,surinam grass; [7],80
same,"Plant response rating, Surinam grass",surinam grass; Rate 250 g/ha,100
same,"Plant response rating, Guineagrass",guineagrass; [4],0
same,"Plant response rating, Guineagrass",guineagrass; [5],0
same,"Plant response rating, Guineagrass",guineagrass; [6],0
same,"Plant response rating, Guineagrass",guineagrass; [7],100
same,"Plant response rating, Guineagrass",guineagrass; Rate 250 g/ha,80
same,"Plant response rating, Johnsongrass",Johnson grass; [4],0
same,"Plant response rating, Johnsongrass",Johnson grass; [5],0
same,"Plant response rating, Johnsongrass",Johnson grass; [6],0
same,"Plant response rating, Johnsongrass",Johnson grass; [7],20
same,"Plant response rating, Johnsongrass",Johnson grass; Rate 250 g/ha,90
